We go through seven molecules from patent US5912233A, “Methods and peptides for the treatment of non-IgE-mediated diseases” (Dura Pharmaceuticals, Inc., priority 1995, dated 1999).

Data set [1] relates to sheep erythrocyte (SRBC)-induced DTH reactions. In words: Sheep erythrocyte (SRBC)-induced DTH, footpad volume. It counts as in vivo, Balb/C mice. Conditions: indomethacin 1.0 mg/kg, day 4; positive control.
Data set [2] has as its system carrageenan-induced inflammation. Kind of data set: Carrageenan-induced footpad edema. It counts as in vivo, Balb/C mice. Conditions: 10 mg/kg s.c. 24 hours prior to carrageenan. The protocol: In order to examine the ability of pentigetide to inhibit carrageenan-induced inflammation, female Balb/C mice were injected with 0.025 ml of 1.0% carrageenan solution (type lx carrageenan: Sigma No. C-1013, Lot No. 86F-0698) or saline in the right hind footpad 5 minutes after intravenous tail vein injection of 0.2 ml pentigetide (1.0 mg/kg) or saline solution. Indomethacin (10 mg/kg was used as a positive control and was administered by subcutaneous injection 24 hours prior to carrageenan injection. Footpad volumes were measured using a Buxco plethysmograph over a 6 hour period. Pentigetide produced substantial inhibition of carrageenan-induced inflammation when compared to saline control animals.
For orientation: The carrageenan paw model is a standard test of acute inflammation.

For data set [3], the system named is tetanus toxoid-induced DTH reactions. The arrangement: species or system Balb/C mice. Conditions: mouse, in vivo.
In data set [4] the test system is chronic idiopathic urticaria. Conditions: human, in vivo.
The subject of data set [5] is immune complex-mediated ulcerative colitis. In words: Immune complex-induced ulcerative colitis model (formalin + IgG immune complexes). The settings on record: prednisolone 5.0 mg/kg i.p. It counts as in vivo, BKA mice. How it is done:
A mouse model of intestinal inflammation was employed wherein the efficacy of pentigetide in reducing inflammation induced by formalin and complementfixing lgG immune complexes was measured. This model is particularly useful as a model of human ulcerative colitis and shares many clinical and histological functions of the human disease including sensitivity to glucocorticoids, sulfasalazine and 5-aminosalicylic acid (see L. P. Walsh, et al., British J. Pharm. 91:294 (1987); A. Blackham, et al., British J. Pharm. 89:694 (1986); L. D. Walsh and I. J. Zeitlin, British J. Pharm. 92:741 (1987)). The mouse model of intestinal inflammation used in these studies is induced by the exposure of the animals to chemicals which are known to trigger inflammatory processes in both animals and humans. […]
Colonic tissue water content was determined by tissue weight loss on drying of colonic tissues. […]
The response to immune complex alone was determined quantitatively by subtracting the mean value in group B from the mean value in group C. An estimate of the percentage reduction in this response produced by the drug was calculated as: [formula] […] Statistical significance was determined using the non-parametric Mann-Whitney U-test. […]

Data set [6] has as its system lymphoblastoid tissue culture cells. Conditions: two trials; U.S. Pat. No. 4,161,522; cited from earlier work.
Data set [7] concerns immunoglobulin Fc receptors. The settings on record: U.S. Pat. No. 4,628,045; cited from earlier work.

Where “and” joins values, the source holds several entries; their conditions need not be identical. Equal values may be shown once. Residues, ends and D or L forms follow the SMILES beside them. No end group written: not given here.

With `COc1ccc2c(c1)c(CC(=O)O)c(C)n2C(=O)c1ccc(Cl)cc1` [Indomethacin, indomethacin], the entries for the “inhibition (footpad swelling)” value in data set [1] and in data set [3] were 43% and 45%, respectively. For the same molecule, the “Percent Inhibition” value in data set [2] (1.0 hours after carrageenan injection) is on record as -35%; in data set [2] (2.0 hours after carrageenan injection) it was -60%; in data set [2] (4.0 hours after carrageenan injection), -39%; in data set [2] (6.0 hours after carrageenan injection), -47%.
Turning to `N=C(N)NCCC[C@H](NC(=O)[C@@H]1CCCN1C(=O)[C@H](CC(=O)O)NC(=O)[C@H](CO)NC(=O)[C@@H](N)CC(=O)O)C(=O)O` [pentigetide, Asp-Ser-Asp-Pro-Arg] (H-DSDPR-OH), the side effects entry in data set [4] is “did not experience any side effects”.
`C[C@]12C=CC(=O)C=C1CC[C@@H]1[C@@H]2[C@@H](O)C[C@@]2(C)[C@H]1CC[C@]2(O)C(=O)CO` [prednisolone]: the “reduction of colonic edema” value in data set [5] (three days prior and daily thereafter, p<0.01) is listed as 86.2%. In addition, in data set [5] (p<0.001), the “reduction of colonic edema (in the colitic sign score paragraph)” value came out at 93.8%.
Consider “Asn-Ser-Asn-Pro-Arg (NSNPR; printed: Asn-Ser-Asn-Pro-Arg)”, for which, in data set [6], the “activity in blocking binding of IgE to lymphoblastoid tissue culture cells” value (shortened to “activity in blocking binding of IgE”) is given as “lower activity”.
With “Asn-Ser-Asp-Pro-Arg (NSDPR; printed: Asn-Ser-Asp-Pro-Arg)”, the “activity in blocking binding of IgE” value in data set [6] is on record as “lower activity”.
Regarding “Asp-Ser-Glu-Pro-Arg (DSEPR; printed: Asp-Ser-Glu-Pro-Arg)”, the “blocking of immune complex binding to immunoglobulin Fc receptors” value in data set [7] is given as “capable of blocking immune complex binding”.
Take “[-Cys-Ala-Asn-Ser-Asn-Pro-Arg]2 (CANSNPR; also: dimer)”: the “activity in blocking binding of IgE” value in data set [6] was 9% and 12%.
